Measured values from patent US20260060947A1 (INSTITUT PASTEUR DE MONTEVIDEO, priority 2019, published 2026).

Assays:
NF-kB = NF-kB activation after sciatic nerve section in NF-kB-RE-Luc mice (in vivo luminescence); design: species or system mouse; conditions: oral 100 mg/kg/day day 0 to day 4, vs vehicle
Description: FIG. 17A: Scheme of the experimental design in which NF-kB-RE-Luc tg mice were treated with 100 mg/kg/day of BANA or vehicle starting immediately before sciatic nerve section (day 0) until day 4.
For NF-kB in vivo imaging studies, the NF-kB-RE-Luc random transgenic mouse model (Taconic, BALB/c-Tg(Rela-luc)31Xen) aged 6-8 weeks was used. These animals carry a transgene containing 6 NF-kB-responsive elements (RE) from the CMVα (immediate early) promoter placed upstream of a basal SV40 promoter, and a modified firefly luciferase cDNA (Promega pGL3). Animals were randomized divided into two groups and orally administrated with 100 mg/kg of BANA or Vehicle (phosphate buffer) starting immediately before sciatic nerve section in the right hindlimb and continuing for 4 days. At day 1, 2 and 4 post-surgery, differences in luciferase activity were compared between groups. To accomplish that, 150 mg/kg of the substrate D-luciferin (#K9918PE, XenoLight) dissolved in PBS, pH 7.4, was injected intraperitoneally to each mouse. […] Changes in NF-kB activity were quantified after comparing the differences of luminescence in the right hindlimb between groups, using ImageJ software.

[1] = LC50 in cell culture of SOD1^G93A adult microglia; assay type: cell-based; conditions: rat
NF-κB-p65 = test: Nuclear NF-κB-p65 in perineuronal microglia of the spinal cord; assay type: in vivo, rat; conditions: post-paralysis treatment for 15 days, 100 mg/kg/day
Description: FIG. 9A: Scheme of the experimental design. SOD1^G93A female rats were treated with 100 mg/kg/day of BANA or vehicle immediately after the first signs of paralysis onset of one hindlimb and continue for 15 days. Immunohistological analysis of the lumbar spinal cord of non-transgenic and vehicle- and BANA-treated SOD1^G93A symptomatic rats were performed.
FIG. 9C: Confocal images show NF-κB-p65 (green) and DAPI (red) expression in the ventral horn of the spinal cord of non-transgenic and symptomatic SOD1^G93A rats, treated with vehicle or BANA, in the surroundings of motor neurons (white dotted lines). Nuclei stained in yellow denote nuclear NF-κB-p65 and DAPI colocalization (white arrows). […] Data are expressed as mean±SEM; data were analyzed by the Kruskal-Wallis test followed by Dunn's multiple comparisons test, **p=0.0018, ***p=0.0003. n=4 animals per condition. Scale bar=20 μm.
At least 4 rats were analyzed for each immunohistochemistry experiment. Three different conditions were studied as follows: 1) non-transgenic (NonTg) rats of 160-180 days; 2) transgenic SOD1^G93A rats of 195-210 days treated with vehicle (paralysis, 15 d-vehicle) and 3) transgenic SOD1^G93A rats of 195-210 days treated with 50 or 100 mg/kg/day of BANA during 15 days. After treatment animals were deeply anesthetized and transcardial perfusion was performed with paraformaldehyde 4% (v/v) in PBS pH=7.4. […]

SOD1^G93A rats [2] = test: Post-paralysis survival trial in SOD1^G93A rats; assay type: in vivo, rat
Description: Only female transgenic rats showing weakness and gait alterations in the […] as the first clinical sign were selected for BANA treatment studies. Rats were divided randomly into BANA or vehicle-treated groups. BANA was freshly prepared in buffer phosphate (PB), and administrated daily at a dose of 100 mg/kg using a curved stainless steel gavage needle with 3-mm ball tip. Rats were treated from day-1 post-paralysis for 15 days or until end-stage when they were euthanized.
All rats were weighed and evaluated for motor activity daily. Disease onset was determined for each animal when pronounced muscle atrophy accompanied by abnormal gait, typically expressed as subtle limping or dragging of one hind limb. End-stage was defined by a lack of righting reflexes or the inability to reach food and water.
Survival curves were compared by Kaplan-Meier analysis with the Log-rank test using GraphPad Prism 7 software.
To test whether systemic treatment with BANA could prolong the survival of SOD1^G93A rats, a trial was conducted in which rats were orally treated with BANA (100 mg/kg/day) or vehicle, starting immediately after paralysis onset of one hind limb until the end-stage of the disease.

SOD1^G93A rats [3] = test: Motor neuron analysis in lumbar spinal cord (ChAT, soma size, ubiquitin, nitrotyrosine, synaptic terminals); assay type: in vivo, rat
Description: One of the main features of ALS in both human patients and animal models is motor neuron loss, thus the effect of BANA on motor neuron size and number was characterized. To further investigate the protective effect of BANA on motor neuron pathology in SOD1^G93A symptomatic rats, experiments were conducted to assess the number of synaptic terminals contacting motor neuron cell bodies in the ventral spinal cord as well as the denervation of neuromuscular junctions.
The number of motor neurons expressing ChAT was assessed by counting the positive cells in the gray matter of the lumbar spinal cord of non-transgenic compared with symptomatic SOD1^G93A onset, vehicle- and BANA treated rats. Motor neuron counting was assessed by counting ChAT positive cells in the ventral horn on eight 30 μm sections taken 100 μm apart. The longest axis (length) of each soma was taken into consideration to quantify the mean size of motor neuron soma. The analysis was performed manually in at least 10 histological sections per animal (four different rats for each condition) using the cell counter tool of the ImageJ software. Statistical studies were performed using statistical tools of the GraphPad Prism 7 software. Descriptive statistics were used for each group, and Kruskal-Wallis analysis followed by Dunn's comparison test was used among groups. Results are presented as mean±SEM, with p<0.05 considered significant.
In other experiments, the number of synaptic vesicles contacting motor neuron cell bodies was assessed by immunohistochemistry by counting VGlut-1-positive and Synaptophysin-positive puncta in Rexed laminae VII and IX. Synaptic terminals were quantified in at least 20 motor neurons per animal (4 different rats per condition) using the Analyze Particles tool of ImageJ software.

NF-κB = test: TNFα-induced NF-κB activation in HT-29 NF-κB reporter cell line (flow cytometry); assay type: cell-based; conditions: BANA 10, 20, 30 μM, BA 30 μM, DMF 30 μM before TNFα
Description: The effects of BANA on LPS- or TNFα-induced NF-κB activation were also assayed in cell cultures of BV2 microglial cell line and primary adult microglia isolated from symptomatic SOD1^G93A rats, and HT-29 NF-κB reporter cell line, respectively.

[4] = oral 100 mg/kg/day from paralysis onset until end-stage
[5] = 100 mg/kg/day, 15 days after paralysis onset, vs vehicle

O=C(O)c1ccc(/C=C/[N+](=O)[O-])cc1 [BANA, (E)-4-(2-nitrovinyl) benzoic acid]
NF-kB luminescence in right hindlimb after sciatic nerve section (NF-kB): significantly prevented | CC50 [1]: 30 µM | perineuronal microglia bearing NF-κB-p65-positive nuclei (NF-κB-p65): significant reduction | increase probability of survival compared with vehicle-treated rats (SOD1^G93A rats [2]; [4]): 32% | mean survival time (SOD1^G93A rats [2]; [4]): evidence of a survival benefit | post-paralysis survival prolonged respect to vehicle (SOD1^G93A rats [2]; oral, starting after disease onset): 32% | loss of VGlut-1-positive and Synaptophysin-positive synaptic terminals (SOD1^G93A rats [3]; 100 mg/kg/day post-paralysis, vs vehicle): significantly prevented | number of ChAT+ motor neurons (SOD1^G93A rats [3]; 100 mg/kg/day, 15 days after paralysis onset): prevented motor neuron loss | NO2-Tyrosine accumulation in surviving motor neurons (SOD1^G93A rats [3]; [5]): significantly prevented | motor neuron size (SOD1^G93A rats [3]; [5]): ameliorated | ubiquitin accumulation / aggregation in motor neurons (SOD1^G93A rats [3]; [5]): significantly prevented | TNFα-induced NF-κB activation (NF-κB): potently prevented
